Experimental data from ChEMBL document CHEMBL1145259, “Arylacetamide kappa opioid receptor agonists with reduced cytochrome P450 2D6 inhibitory activity” (Bioorg Med Chem Lett, 2005).

Key:
Cytochrome P450 2D6 = Cytochrome P450 2D6 (Homo sapiens, UniProt P10635); experiment: Inhibition of cytochrome P450 2D6 was determined using MAMC (7-methoxy-4-aminomethyl-coumarin) as substrate; assay type: ADME
Mu-type opioid receptor [1] = molecular target: T1, Mu-type opioid receptor (Homo sapiens, UniProt P35372); experiment: Percent inhibition against human Opioid receptor mu 1 using [3H]diprenorphine as radio ligand; design: concentration or dose not given beside the values; details: concentration not given here
[2] = molecular target: T2, Delta-type opioid receptor (Homo sapiens, UniProt P41143); experiment: Percent inhibition constant against human Opioid receptor delta 1 using [3H]diprenorphine as radio ligand; details: concentration not given here
Mu-type opioid receptor [3] = molecular target: T1, Mu-type opioid receptor; experiment: Inhibitory constant against human Opioid receptor mu 1 using [3H]diprenorphine as radio ligand
[4] = molecular target: T2, Delta-type opioid receptor; experiment: Percent inhibition against human Opioid receptor delta 1 using [3H]diprenorphine as radio ligand; details: concentration not given here
CYP2D6 = CYP2D6 (Homo sapiens, UniProt P10635); experiment: Inhibition of cytochrome P450 2D6 activity was measured by the inhibition of HAMC production at the concentration of 10 uM; assay type: ADME
[5] = molecular target: T2, Delta-type opioid receptor; experiment: Inhibitory constant against human Opioid receptor delta 1 using [3H]diprenorphine as radio ligand

T1 sequence (P35372 whole entry): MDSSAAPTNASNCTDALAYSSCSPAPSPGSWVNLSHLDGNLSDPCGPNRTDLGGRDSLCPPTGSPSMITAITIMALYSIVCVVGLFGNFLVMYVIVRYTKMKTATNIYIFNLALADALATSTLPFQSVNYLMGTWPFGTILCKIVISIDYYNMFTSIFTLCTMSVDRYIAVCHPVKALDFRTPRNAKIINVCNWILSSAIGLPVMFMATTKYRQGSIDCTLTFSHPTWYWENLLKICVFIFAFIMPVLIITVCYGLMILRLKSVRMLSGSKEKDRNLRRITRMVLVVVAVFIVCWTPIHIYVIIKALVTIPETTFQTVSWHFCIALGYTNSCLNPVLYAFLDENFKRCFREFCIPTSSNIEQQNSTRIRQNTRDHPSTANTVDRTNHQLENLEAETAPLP
T2 sequence (P41143 whole entry): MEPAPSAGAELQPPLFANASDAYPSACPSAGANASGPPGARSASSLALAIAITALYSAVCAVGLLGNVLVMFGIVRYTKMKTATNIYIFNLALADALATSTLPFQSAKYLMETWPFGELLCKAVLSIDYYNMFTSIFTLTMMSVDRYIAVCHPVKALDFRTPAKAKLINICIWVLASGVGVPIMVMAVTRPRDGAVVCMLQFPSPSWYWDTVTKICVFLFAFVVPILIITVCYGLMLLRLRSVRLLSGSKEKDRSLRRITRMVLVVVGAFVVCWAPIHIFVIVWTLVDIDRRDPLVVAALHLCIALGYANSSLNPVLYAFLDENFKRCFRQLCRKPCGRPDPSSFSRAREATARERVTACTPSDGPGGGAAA
Sequence of CYP2D6 (P10635 whole entry): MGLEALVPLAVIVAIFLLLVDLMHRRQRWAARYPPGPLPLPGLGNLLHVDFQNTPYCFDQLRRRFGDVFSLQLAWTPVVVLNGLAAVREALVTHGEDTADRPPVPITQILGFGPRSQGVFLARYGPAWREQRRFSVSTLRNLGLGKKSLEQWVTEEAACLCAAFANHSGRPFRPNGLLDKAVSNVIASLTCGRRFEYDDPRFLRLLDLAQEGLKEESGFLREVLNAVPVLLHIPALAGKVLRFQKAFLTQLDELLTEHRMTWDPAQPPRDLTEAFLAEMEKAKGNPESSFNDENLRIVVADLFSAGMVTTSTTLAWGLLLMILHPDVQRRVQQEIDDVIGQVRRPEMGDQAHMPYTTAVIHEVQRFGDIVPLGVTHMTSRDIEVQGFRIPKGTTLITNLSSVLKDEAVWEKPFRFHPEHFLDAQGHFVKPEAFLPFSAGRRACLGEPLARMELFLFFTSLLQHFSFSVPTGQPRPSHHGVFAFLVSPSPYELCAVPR
Sequence of Cytochrome P450 2D6 (P10635 whole entry): as above

SMILES | IC50 (Cytochrome P450 2D6) [nM] | Ki (Mu-type opioid receptor [3]) [nM] | Ki [5] [nM] | further results
CN(C(=O)Cc1ccc(Cl)c(Cl)c1)[C@H](CN1CCCC1)c1ccccc1 [ICI-199,441] | 26 |  |  | 
CN(C(=O)Cc1ccccc1CN)[C@H](CN1CCCC1)c1ccccc1 | 18 |  |  | inhibition (Mu-type opioid receptor [1]): 29%; inhibition [2]: 37%
CN(C(=O)Cc1cccc(CN)c1)[C@H](CN1CCCC1)c1ccccc1 | 107 | 2300 |  | inhibition [4]: 1.4%
CN(C(=O)Cc1ccc(CCNS(C)(=O)=O)cc1)[C@H](CN1CC[C@H](O)C1)c1ccccc1 |  |  | 107 | inhibition at 10 µM (CYP2D6): 48%
CCCCS(=O)(=O)NCc1ccc(CC(=O)N(C)[C@H](CN2CC[C@H](O)C2)c2ccccc2)cc1 | 7890 | 1050 | 167 | 
CN(C(=O)Cc1ccc(CCCNS(C)(=O)=O)cc1)[C@H](CN1CC[C@H](O)C1)c1ccccc1 |  |  |  | inhibition at 10 µM (CYP2D6): 46%
CC(=O)NCc1ccccc1CC(=O)N(C)[C@H](CN1CCCC1)c1ccccc1 | 35 | 1240 | 900 | 
CCS(=O)(=O)NCc1ccc(CC(=O)N(C)[C@H](CN2CC[C@H](O)C2)c2ccccc2)cc1 |  | 1030 |  | inhibition at 10 µM (CYP2D6): 31%
CC(=O)NCc1cccc(CC(=O)N(C)[C@H](CN2CCCC2)c2ccccc2)c1 | 600 |  |  | inhibition (Mu-type opioid receptor [1]): 21%; inhibition [4]: 15%
CN(C(=O)Cc1ccc2c(c1)CN(S(C)(=O)=O)C2)[C@H](CN1CCCC1)c1ccccc1 | 1040 | 74 | 1500 | 
CN(C(=O)Cc1ccc(CNS(C)(=O)=O)cc1)[C@H](CN1CC[C@H](O)C1)c1ccccc1 |  | 151 | 167 | inhibition at 10 µM (CYP2D6): 25%
CNC(=O)NCc1ccc(CC(=O)N(C)[C@H](CN2CCCC2)c2ccccc2)cc1 | 1220 |  | 1300 | inhibition (Mu-type opioid receptor [1]): 43%
CN(C(=O)Cc1ccc(CNS(=O)(=O)c2ccc(F)cc2)cc1)[C@H](CN1CC[C@H](O)C1)c1ccccc1 | 5790 | 1080 | 63 | 
CC(C)S(=O)(=O)NCc1ccc(CC(=O)N(C)[C@H](CN2CC[C@H](O)C2)c2ccccc2)cc1 |  |  |  | inhibition at 10 µM (CYP2D6): 27%
CN(C(=O)Cc1ccccc1CNS(C)(=O)=O)[C@H](CN1CCCC1)c1ccccc1 | 295 | 570 | 898 | 
CC(=O)NCc1ccc(CC(=O)N(C)[C@H](CN2CCCC2)c2ccccc2)cc1 | 1110 |  |  | inhibition (Mu-type opioid receptor [1]): 26%; inhibition [4]: 0%
CN(C(=O)Cc1cccc(CNS(C)(=O)=O)c1)[C@H](CN1CCCC1)c1ccccc1 | 1820 |  |  | 
CN(C(=O)Cc1ccc(CN)cc1)[C@H](CN1CCCC1)c1ccccc1 | 326 |  |  | inhibition (Mu-type opioid receptor [1]): 41%; inhibition [4]: 17%
Cc1ccc(S(=O)(=O)NCc2ccc(CC(=O)N(C)[C@H](CN3CC[C@H](O)C3)c3ccccc3)cc2)cc1 | 5650 |  | 27 | 
CN(C(=O)Cc1ccc(CNS(=O)(=O)Cc2cccs2)cc1)[C@H](CN1CC[C@H](O)C1)c1ccccc1 | 4780 | 1060 | 55 | 
CN(C(=O)Cc1ccc(CNS(C)(=O)=O)cc1)[C@H](CN1CCCC1)c1ccccc1 |  | 440 | 1130 | inhibition at 10 µM (CYP2D6): 45%
CN(C(=O)Cc1ccccc1)[C@H](CN1CCCC1)c1ccccc1 | 46 |  |  | 
CN(C(=O)Cc1ccc(CNS(=O)(=O)Cc2ccccc2)cc1)[C@H](CN1CC[C@H](O)C1)c1ccccc1 | 5700 |  | 173 | 
CN(C(=O)Cc1ccc(CNS(=O)(=O)c2ccccc2)cc1)[C@H](CN1CC[C@H](O)C1)c1ccccc1 | 4340 |  |  | 
CCCS(=O)(=O)NCc1ccc(CC(=O)N(C)[C@H](CN2CC[C@H](O)C2)c2ccccc2)cc1 |  | 1050 | 124 | inhibition at 10 µM (CYP2D6): 27%
CN(C(=O)Cc1ccc(NS(C)(=O)=O)cc1)[C@H](CN1CC[C@H](O)C1)c1ccccc1 | 5530 | 105 | 177 | 
